# Reference: PMC3527451, “A Pilot Randomized, Placebo Controlled, Double Blind Phase I Trial of the Novel SIRT1 Activator SRT2104 in Elderly Volunteers” (PLoS ONE, 2012)
# Entries after “also recorded” stand apart in the source; their conditions may differ.
# Experiments:
# [1] = cited from earlier work
# [2] = system: elderly male and female volunteers; assay: Maximal aerobic capacity test (incremental cycle ergometer); assay type: in vivo, human
# Method: A stepwise incremental exercise test was performed on a cycle ergometer (Monarch 874E, Monark Exercise AB, Vansbro, Sweden). All participants were familiarized to the test procedure on a separate occasion prior to testing. Participants were seated in a standardized position. The test started with unloaded cycling, subjects were asked to maintain a cadence of 50 revolutions per minute (rpm), if the subject could not achieve 50 rpm they were encouraged to cycle as fast as the could (but not less than 40 rpm). Every two minutes the external load on the cycle ergometer was increased by 0.5 kg, this equated to a 25-Watt increase in workload at 50 rpm. Cardiac monitoring of heart rate, respiratory rate/minute ventilation and pulse oximeter for oxygen saturation were continuously recorded during the test.
# Analysis of Maximal Aerobic Capacity parameters was performed using an ANOVA model with treatment group as a factor. Workload was progressed in 2-minute staged increments from an initial 3 minutes unloaded cycling, to exhaust subjects over a 6- to 10-min period. The test was terminated when the participant reached volitional exhaustion or their cadence dropped by 10 rpm. At the end of each increment, work-rate watts, rating of perceived exertion (Borg RPE scale), heart rate (Polar Vantage chest heart rate monitor, Polar Electro, Finland) and 3-lead ECG were recorded.
# [3] = system: elderly male and female volunteers; assay: Modified oral glucose tolerance test (mOGTT); assay type: in vivo, human
# Method: The oral glucose tolerance test (OGTT) allows identification and monitoring of individuals with impaired glucose tolerance and to evaluate the pharmacological effects of glucose lowering agents, [21]. A mOGTT was performed at baseline and on day 29 to assess the pharmacodynamic effects of SRT2104 (or placebo) on glucose, insulin and C-peptide levels. On both occasion, after an overnight fast, subjects were asked to drink a standard glucose beverage containing 75 g of glucose. Blood sample were drawn 10 min before and just prior to the subject consuming the beverage. Additional blood samples were drawn at 10, 20, 30, 60, 90, 120 and 180 minutes after the subject had consumed the glucose beverage. Plasma level of glucose, insulin and C-peptide were measured at each time point. The maximum glucose level (Gmax) was determined, and the area under the plasma glucose concentration–time curve (AUCgluc) was calculated using the trapezoidal rule. AUCgluc60 was defined as the area under the curve from 0 to 60 min after glucose ingestion, the period during which plasma glucose concentration increases. The effects of SRT2104 (or placebo) on glucose, insulin and C-peptide levels and relative AUCs were calculated in each subject as the differences between values at baseline (screening) and after 28 daily administrations of the test material.
# CYP1A = conditions: human liver microsomes; cited from earlier work
smiles,measurement,setting,value
Cc1nc(-c2cccnc2)sc1C(=O)Nc1ccccc1-c1cn2c(CN3CCOCC3)csc2n1 [SRT2104],effect of food on overall exposure,"[1]; 0.5 and 2.0 g doses, standardized solid meal vs fasted state",increase exposure levels; also recorded: increase in overall exposure
same,effect of food on inter-subject variability in exposure,[1]; fed state vs fasted state,substantial reduction in inter-subject variability
same,"RPE, range of change from baseline","[2]; 0.5g/day, day 27",-3-6
same,"TTC, range of change from baseline","[2]; 0.5g/day, day 27",-106 to 67 s
same,"TTC, mean change from baseline (SD)","[2]; 0.5g/day, day 27, p 0.004",-31 (50) sec
same,"RPE, mean change from baseline (SD)","[2]; 0.5g/day, day 27, p 0.962",0 (3)
same,decrease in exercise capacity (time to cessation for the staged bicycle assessment),"[2]; 0.5 g/day, day 27, p = 0.004",4%
same,"RPE, range of change from baseline","[2]; 2.0g/day, day 27",-3-1
same,"TTC, range of change from baseline","[2]; 2.0g/day, day 27",-29 to 45 s
same,change in exercise capacity,"[2]; 2.0g/day, day 27",no evidence for any changes
same,"TTC, mean change from baseline (SD)","[2]; 2.0g/day, day 27, p 0.292",9 (27) sec
same,"RPE, mean change from baseline (SD)","[2]; 2.0g/day, day 27, p 0.638",-1 (2)
same,OGTT responses,[3]; 0.5 or 2.0 g for 28 days,No significant changes
same,rise of insulin and C-peptide and peak insulin concentration in OGTT,"[3]; 2.0 g/day, day 29 relative to baseline",trends to reduced rates in the rise of both insulin and C-peptide and a lower peak insulin concentration
same,insulin and C-peptide levels and relative AUCs in OGTT,[3]; baseline vs day 29,no statistically significant changes
same,inhibition of CYP1A,CYP1A,not an inhibitor; also recorded: does not inhibit
